Legend:
Experiment in all cases: Kinase panel profiling at 1 µmol/L (mobility shift assay, Carna)
Format in all cases: biochemical
Details in all cases: 1 µmol/L of BTK inhibitor
PEK = target: T1, PEK (Homo sapiens, UniProt Q9NZJ5)
T1 construct: purchased Carna Biosciences
T1 sequence (Q9NZJ5 30-1116): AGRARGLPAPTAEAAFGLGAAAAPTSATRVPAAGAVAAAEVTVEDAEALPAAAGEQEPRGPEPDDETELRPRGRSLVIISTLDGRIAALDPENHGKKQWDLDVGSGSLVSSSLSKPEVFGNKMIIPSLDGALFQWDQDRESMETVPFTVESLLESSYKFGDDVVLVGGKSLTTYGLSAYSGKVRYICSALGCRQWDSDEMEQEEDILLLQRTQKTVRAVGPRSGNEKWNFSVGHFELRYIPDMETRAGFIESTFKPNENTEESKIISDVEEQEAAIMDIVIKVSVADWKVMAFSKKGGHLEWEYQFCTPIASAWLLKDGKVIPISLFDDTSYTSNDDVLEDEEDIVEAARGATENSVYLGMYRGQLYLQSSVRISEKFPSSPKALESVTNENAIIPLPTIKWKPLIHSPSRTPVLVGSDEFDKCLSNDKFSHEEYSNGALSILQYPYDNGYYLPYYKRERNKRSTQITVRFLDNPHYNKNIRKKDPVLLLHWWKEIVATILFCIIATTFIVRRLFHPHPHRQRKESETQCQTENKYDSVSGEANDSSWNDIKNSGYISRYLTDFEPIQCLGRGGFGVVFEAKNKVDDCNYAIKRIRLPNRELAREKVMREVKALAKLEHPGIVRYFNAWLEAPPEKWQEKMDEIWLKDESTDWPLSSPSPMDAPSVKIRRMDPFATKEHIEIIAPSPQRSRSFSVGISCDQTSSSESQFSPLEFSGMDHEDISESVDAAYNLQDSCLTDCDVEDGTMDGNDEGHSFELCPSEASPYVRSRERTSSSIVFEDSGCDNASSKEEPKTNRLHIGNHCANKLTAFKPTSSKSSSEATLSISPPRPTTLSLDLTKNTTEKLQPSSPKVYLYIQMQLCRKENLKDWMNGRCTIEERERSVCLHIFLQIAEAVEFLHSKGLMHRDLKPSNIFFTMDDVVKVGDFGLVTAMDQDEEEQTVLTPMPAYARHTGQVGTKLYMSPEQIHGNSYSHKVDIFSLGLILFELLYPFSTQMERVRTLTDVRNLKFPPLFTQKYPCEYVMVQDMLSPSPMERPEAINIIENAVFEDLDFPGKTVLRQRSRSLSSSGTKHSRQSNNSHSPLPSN

TSSK1 = target: T2, TSSK1 (Homo sapiens, UniProt Q9BXA7)
T2 construct: purchased Carna Biosciences
T2 sequence (Q9BXA7 1-367): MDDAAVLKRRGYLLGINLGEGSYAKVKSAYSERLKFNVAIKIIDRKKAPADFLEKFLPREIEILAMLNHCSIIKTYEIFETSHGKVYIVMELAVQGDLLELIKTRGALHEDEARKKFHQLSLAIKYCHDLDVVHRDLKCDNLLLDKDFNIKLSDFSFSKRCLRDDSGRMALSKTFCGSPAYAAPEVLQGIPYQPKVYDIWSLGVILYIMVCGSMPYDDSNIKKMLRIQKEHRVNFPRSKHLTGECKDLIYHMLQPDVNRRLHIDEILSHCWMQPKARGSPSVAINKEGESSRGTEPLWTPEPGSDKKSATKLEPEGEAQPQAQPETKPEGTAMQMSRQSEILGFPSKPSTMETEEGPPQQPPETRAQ

HIPK2 = target: T3, HIPK2 (Homo sapiens, UniProt Q9H2X6)
T3 construct: purchased Carna Biosciences

p38γ = target: T4, p38γ (Homo sapiens, UniProt P53778)
T4 construct: purchased Carna Biosciences
T4 sequence (P53778 1-367): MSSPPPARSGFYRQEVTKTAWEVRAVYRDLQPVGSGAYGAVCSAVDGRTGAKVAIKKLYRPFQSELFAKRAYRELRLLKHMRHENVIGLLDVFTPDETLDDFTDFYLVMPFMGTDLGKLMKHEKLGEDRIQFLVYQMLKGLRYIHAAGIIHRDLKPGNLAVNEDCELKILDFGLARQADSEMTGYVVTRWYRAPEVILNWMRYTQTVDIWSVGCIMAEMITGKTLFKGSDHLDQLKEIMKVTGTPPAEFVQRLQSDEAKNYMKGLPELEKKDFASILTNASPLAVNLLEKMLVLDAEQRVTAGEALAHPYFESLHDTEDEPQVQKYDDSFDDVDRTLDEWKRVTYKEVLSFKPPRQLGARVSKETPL

DYRK1B = target: T5, DYRK1B (Homo sapiens, UniProt Q9Y463)
T5 construct: purchased Carna Biosciences

PDGFRβ = target: T6, PDGFRβ (Homo sapiens, UniProt P09619)
T6 construct: purchased Carna Biosciences

PIM1 = target: T7, PIM1 (Homo sapiens, UniProt P11309)
T7 construct: purchased Carna Biosciences

RSK3 = target: T8, RSK3 (Homo sapiens, UniProt Q15349)
T8 construct: purchased Carna Biosciences

MAPKAPK3 = target: T9, MAPKAPK3 (Homo sapiens, UniProt Q16644)
T9 construct: purchased Carna Biosciences

SLK = target: T10, SLK (Homo sapiens, UniProt Q9H2G2)
T10 construct: purchased Carna Biosciences

T6 sequence (P09619 33-1106): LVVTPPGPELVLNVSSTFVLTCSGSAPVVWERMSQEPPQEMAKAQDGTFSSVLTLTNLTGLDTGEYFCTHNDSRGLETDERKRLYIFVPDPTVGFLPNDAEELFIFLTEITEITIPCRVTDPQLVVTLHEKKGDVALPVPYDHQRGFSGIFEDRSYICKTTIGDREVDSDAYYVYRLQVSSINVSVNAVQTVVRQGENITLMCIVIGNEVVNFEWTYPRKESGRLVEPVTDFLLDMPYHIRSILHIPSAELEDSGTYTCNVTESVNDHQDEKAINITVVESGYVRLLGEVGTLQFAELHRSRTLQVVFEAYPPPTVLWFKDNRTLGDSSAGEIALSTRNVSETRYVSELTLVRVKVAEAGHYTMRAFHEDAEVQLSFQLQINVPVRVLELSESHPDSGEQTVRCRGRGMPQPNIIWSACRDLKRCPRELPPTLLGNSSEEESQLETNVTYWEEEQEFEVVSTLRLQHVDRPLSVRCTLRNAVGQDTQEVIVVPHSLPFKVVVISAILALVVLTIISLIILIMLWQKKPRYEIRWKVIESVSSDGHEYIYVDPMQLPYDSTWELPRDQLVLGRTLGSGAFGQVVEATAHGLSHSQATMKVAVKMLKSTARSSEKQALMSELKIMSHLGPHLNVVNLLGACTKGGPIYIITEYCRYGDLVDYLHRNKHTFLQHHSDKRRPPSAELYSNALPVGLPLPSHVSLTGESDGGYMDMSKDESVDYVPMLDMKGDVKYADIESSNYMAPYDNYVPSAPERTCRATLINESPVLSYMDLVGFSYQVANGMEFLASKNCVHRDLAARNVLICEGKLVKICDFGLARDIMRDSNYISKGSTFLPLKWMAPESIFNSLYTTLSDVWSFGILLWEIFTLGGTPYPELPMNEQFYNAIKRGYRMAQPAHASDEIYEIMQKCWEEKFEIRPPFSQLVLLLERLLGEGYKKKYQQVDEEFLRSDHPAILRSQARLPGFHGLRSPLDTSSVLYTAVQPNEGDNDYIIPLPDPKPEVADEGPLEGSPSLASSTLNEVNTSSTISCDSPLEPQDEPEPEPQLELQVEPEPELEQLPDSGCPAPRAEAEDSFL
T5 sequence (Q9Y463 whole entry): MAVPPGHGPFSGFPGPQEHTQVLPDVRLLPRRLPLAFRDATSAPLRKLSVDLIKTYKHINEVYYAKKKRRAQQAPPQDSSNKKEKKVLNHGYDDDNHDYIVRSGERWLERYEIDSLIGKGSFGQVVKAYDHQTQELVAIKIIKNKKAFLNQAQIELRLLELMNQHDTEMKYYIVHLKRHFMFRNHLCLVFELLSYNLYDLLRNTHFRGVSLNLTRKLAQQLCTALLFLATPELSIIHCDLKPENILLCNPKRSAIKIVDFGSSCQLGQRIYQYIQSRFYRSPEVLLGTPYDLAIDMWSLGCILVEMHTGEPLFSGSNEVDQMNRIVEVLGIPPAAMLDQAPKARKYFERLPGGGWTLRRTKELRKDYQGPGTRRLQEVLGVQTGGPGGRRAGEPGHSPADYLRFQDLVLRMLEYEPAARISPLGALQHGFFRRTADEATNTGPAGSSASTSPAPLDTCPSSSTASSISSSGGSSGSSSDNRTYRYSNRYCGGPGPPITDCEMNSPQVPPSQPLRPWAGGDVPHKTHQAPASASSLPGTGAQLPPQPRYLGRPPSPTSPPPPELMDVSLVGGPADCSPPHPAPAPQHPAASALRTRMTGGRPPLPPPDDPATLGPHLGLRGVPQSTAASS
T7 sequence (P11309 whole entry): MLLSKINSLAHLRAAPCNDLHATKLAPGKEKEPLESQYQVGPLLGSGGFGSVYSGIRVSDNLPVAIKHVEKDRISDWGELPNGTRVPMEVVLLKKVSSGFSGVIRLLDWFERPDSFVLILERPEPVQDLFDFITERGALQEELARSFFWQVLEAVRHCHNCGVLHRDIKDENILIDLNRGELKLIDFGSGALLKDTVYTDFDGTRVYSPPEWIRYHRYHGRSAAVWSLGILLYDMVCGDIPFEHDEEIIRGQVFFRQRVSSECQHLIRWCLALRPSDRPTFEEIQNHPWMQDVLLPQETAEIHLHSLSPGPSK
T9 sequence (Q16644 whole entry): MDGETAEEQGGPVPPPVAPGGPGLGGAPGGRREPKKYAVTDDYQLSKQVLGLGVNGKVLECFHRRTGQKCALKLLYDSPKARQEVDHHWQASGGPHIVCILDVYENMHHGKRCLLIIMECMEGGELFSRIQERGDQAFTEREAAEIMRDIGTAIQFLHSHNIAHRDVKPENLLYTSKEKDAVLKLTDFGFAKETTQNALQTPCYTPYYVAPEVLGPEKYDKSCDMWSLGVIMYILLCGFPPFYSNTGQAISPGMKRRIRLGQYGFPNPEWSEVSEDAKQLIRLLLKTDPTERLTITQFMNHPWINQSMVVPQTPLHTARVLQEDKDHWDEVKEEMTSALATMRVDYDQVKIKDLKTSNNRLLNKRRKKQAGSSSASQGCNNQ
T3 sequence (Q9H2X6 whole entry): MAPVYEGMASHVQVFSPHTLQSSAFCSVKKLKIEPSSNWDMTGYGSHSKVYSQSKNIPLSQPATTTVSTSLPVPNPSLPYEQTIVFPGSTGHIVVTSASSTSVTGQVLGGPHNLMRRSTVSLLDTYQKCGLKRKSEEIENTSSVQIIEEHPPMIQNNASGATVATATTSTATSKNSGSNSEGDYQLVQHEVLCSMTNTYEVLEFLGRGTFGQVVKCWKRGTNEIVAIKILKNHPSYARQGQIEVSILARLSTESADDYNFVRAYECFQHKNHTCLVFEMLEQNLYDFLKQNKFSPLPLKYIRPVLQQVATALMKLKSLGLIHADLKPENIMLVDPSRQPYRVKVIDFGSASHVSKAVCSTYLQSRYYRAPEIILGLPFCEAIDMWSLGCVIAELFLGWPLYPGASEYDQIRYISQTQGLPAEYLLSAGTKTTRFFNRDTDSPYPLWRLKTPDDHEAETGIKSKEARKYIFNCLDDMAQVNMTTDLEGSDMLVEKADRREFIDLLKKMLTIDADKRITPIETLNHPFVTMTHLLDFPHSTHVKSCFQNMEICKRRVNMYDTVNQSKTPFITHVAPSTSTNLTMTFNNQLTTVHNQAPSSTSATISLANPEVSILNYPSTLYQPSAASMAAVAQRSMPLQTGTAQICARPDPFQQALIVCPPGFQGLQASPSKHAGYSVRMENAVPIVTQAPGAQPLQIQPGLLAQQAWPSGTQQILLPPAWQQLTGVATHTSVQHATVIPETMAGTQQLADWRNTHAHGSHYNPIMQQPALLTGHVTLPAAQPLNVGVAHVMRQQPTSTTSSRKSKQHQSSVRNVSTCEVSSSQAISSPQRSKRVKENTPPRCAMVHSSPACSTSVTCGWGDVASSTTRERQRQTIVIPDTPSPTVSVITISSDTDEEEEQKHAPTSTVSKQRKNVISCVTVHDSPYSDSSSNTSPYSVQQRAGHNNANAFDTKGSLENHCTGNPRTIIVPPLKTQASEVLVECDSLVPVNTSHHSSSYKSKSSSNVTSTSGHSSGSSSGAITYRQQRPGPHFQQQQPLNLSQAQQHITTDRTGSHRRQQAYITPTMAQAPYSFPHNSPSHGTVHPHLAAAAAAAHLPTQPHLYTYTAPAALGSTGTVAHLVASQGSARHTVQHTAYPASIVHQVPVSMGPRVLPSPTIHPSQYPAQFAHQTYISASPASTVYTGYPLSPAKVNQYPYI
T8 sequence (Q15349 whole entry): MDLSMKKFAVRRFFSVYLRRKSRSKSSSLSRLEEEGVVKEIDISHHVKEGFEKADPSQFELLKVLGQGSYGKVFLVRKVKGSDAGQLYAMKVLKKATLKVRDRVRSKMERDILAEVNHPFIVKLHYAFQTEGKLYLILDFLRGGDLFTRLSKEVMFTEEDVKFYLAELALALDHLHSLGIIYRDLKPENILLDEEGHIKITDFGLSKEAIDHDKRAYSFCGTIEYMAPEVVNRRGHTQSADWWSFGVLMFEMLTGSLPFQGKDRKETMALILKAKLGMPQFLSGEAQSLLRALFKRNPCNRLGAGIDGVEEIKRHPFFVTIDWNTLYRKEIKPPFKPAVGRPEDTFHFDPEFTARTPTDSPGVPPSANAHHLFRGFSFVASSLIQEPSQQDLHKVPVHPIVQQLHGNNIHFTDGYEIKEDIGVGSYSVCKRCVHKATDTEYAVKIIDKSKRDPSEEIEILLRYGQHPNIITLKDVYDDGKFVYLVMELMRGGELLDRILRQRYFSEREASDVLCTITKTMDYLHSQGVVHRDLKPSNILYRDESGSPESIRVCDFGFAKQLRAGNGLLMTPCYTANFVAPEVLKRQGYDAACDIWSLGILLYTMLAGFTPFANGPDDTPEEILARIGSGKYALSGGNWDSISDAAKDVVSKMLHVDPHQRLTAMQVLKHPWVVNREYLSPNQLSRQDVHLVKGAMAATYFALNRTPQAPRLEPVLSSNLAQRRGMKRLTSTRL

CC#CC(=O)N1CCC[C@H]1c1nc(-c2ccc(C(=O)Nc3ccccn3)cc2)c2c(N)nccn12 [acalabrutinib]
Percentage inhibition of kinase enzyme activity (PEK): 8.39% | Percentage inhibition of kinase enzyme activity (TSSK1): -7.15% | Percentage inhibition of kinase enzyme activity (HIPK2): -11.44% | Percentage inhibition of kinase enzyme activity (p38γ): -1.74% | Percentage inhibition of kinase enzyme activity (DYRK1B): -19.49% | Percentage inhibition of kinase enzyme activity (PDGFRβ): 5.36% | Percentage inhibition of kinase enzyme activity (PIM1): -4.28% | Percentage inhibition of kinase enzyme activity (RSK3): 1.13% | Percentage inhibition of kinase enzyme activity (MAPKAPK3): -11.15% | Percentage inhibition of kinase enzyme activity (SLK): 1.61%

C=CC(=O)N1CCC[C@@H](n2nc(-c3ccc(Oc4ccccc4)cc3)c3c(N)ncnc32)C1 [ibrutinib]
Percentage inhibition of kinase enzyme activity (PEK): 7.47% | Percentage inhibition of kinase enzyme activity (TSSK1): 9.10% | Percentage inhibition of kinase enzyme activity (HIPK2): 2.01% | Percentage inhibition of kinase enzyme activity (p38γ): 3.51% | Percentage inhibition of kinase enzyme activity (DYRK1B): 1.91% | Percentage inhibition of kinase enzyme activity (PDGFRβ): 54.81% | Percentage inhibition of kinase enzyme activity (RSK3): 8.80% | Percentage inhibition of kinase enzyme activity (MAPKAPK3): -6.50% | Percentage inhibition of kinase enzyme activity (SLK): 12.11%

O=C(c1ccc(Oc2ccccc2)cc1Cl)c1c[nH]c2ncnc(N[C@@H]3CC[C@@H](CO)OC3)c12 [nemtabrutinib]
Percentage inhibition of kinase enzyme activity (PEK): 49.66% | Percentage inhibition of kinase enzyme activity (TSSK1): 5.68% | Percentage inhibition of kinase enzyme activity (HIPK2): 3.26% | Percentage inhibition of kinase enzyme activity (p38γ): 0.72% | Percentage inhibition of kinase enzyme activity (DYRK1B): -3.59% | Percentage inhibition of kinase enzyme activity (PDGFRβ): 76.83% | Percentage inhibition of kinase enzyme activity (PIM1): -15.07% | Percentage inhibition of kinase enzyme activity (RSK3): 19.54% | Percentage inhibition of kinase enzyme activity (MAPKAPK3): -15.88% | Percentage inhibition of kinase enzyme activity (SLK): 52.74%

C=CC(=O)N1CCC([C@@H]2CCNc3c(C(N)=O)c(-c4ccc(Oc5ccccc5)cc4)nn32)CC1 [zanubrutinib]
Percentage inhibition of kinase enzyme activity (PDGFRβ): 5.37% | Percentage inhibition of kinase enzyme activity (MAPKAPK3): -12.22%

COc1ccc(F)cc1C(=O)NCc1ccc(-c2nn([C@@H](C)C(F)(F)F)c(N)c2C(N)=O)cc1 [pirtobrutinib]
Percentage inhibition of kinase enzyme activity (PEK): -9.35% | Percentage inhibition of kinase enzyme activity (TSSK1): -0.58% | Percentage inhibition of kinase enzyme activity (HIPK2): 0.19% | Percentage inhibition of kinase enzyme activity (p38γ): -2.05% | Percentage inhibition of kinase enzyme activity (DYRK1B): 12.04% | Percentage inhibition of kinase enzyme activity (PDGFRβ): 5.87% | Percentage inhibition of kinase enzyme activity (PIM1): 3.95% | Percentage inhibition of kinase enzyme activity (RSK3): 1.65% | Percentage inhibition of kinase enzyme activity (MAPKAPK3): -18.63% | Percentage inhibition of kinase enzyme activity (SLK): -0.40%
